# Earlier results in patent publication US8404645B2, “Stable formulations of amylin and its analogues” (Novo Nordisk AS, priority 2007, dated 2013).
# Where no end group is shown, it is not given here.
# Conditions: treated test animals; provoking marked hyperlactemia followed by hyperglycemia
row,Substance,Amylin activity in vivo
1,Pro25 Val26 Pro 28 Pro29-h-amylin,show amylin activity in vivo
2,Arg18 Pro25 Pro 28-des-Lys1-h-amylin,show amylin activity in vivo
3,Arg18 Pro25 Pro28-h-amylin,show amylin activity in vivo
4,"Pro28-h-amylin (KCNTATCATQRLANFLVHSSNNFGAILPSTNVGSNTY; ends and bridges not checked; cysteine pairing not given here; UniProt P10997 34-70, looked up, variant S28P) [human amylin analog, Pro at position 28]",show amylin activity in vivo
5,des-Lys1-h-amylin,show amylin activity in vivo
